In brackets after ≈: the same amount, converted by molar mass.
Key:
Klebsiella pneumoniae [1] = assay: Antimicrobial activity against carbapenem-resistant Klebsiella pneumoniae GZ84 deficient in SHV-11, aac(6')-Ib-cr, ompK35 by CLSI method; format: functional
Citrobacter freundii [2] = assay: Antimicrobial activity against Citrobacter freundii SZ62 expressing IMP-4, TEM-1, CMY-2, qnrS1, aac(6')-Ib-cr by CLSI method; format: functional
Klebsiella aerogenes [3] = assay: Antimicrobial activity against carbapenem-resistant Enterobacter aerogenes PU41 deficient in CTX-M-14, DHA-1, qnrS1, ompC DEc, ompF by CLSI method; format: functional
Klebsiella aerogenes [4] = assay: Antimicrobial activity against Enterobacter aerogenes PU41T expressing CTX-M-14, DHA-1, qnrS1 by CLSI method; format: functional
Escherichia coli [5] = assay: Antimicrobial activity against Escherichia coli ZJ87T expressing KPC-2 by CLSI method; format: functional
Escherichia coli [6] = assay: Antimicrobial activity against Escherichia coli C600 by CLSI method; format: functional
Escherichia coli [7] = assay: Antimicrobial activity against carbapenem-resistant Escherichia coli PU96 deficient in TEM-1, CTX-M-14, CMY-2, ompC/F by CLSI method; format: functional
Citrobacter freundii [8] = assay: Antimicrobial activity against Citrobacter freundii SZ63 expressing IMP-4, qnrS1by CLSI method; format: functional
Citrobacter freundii [9] = assay: Antimicrobial activity against Citrobacter freundii SZ63T expressing IMP-4, qnrS1by CLSI method; format: functional
Klebsiella pneumoniae [10] = assay: Antimicrobial activity against carbapenem-resistant Klebsiella pneumoniae GZ66 deficient in SHV-11, DHA-1, ompK35/36 by CLSI method; format: functional
Klebsiella pneumoniae [11] = assay: Antimicrobial activity against carbapenem-resistant Klebsiella pneumoniae PU104 deficient in TEM-1, SHV-11, CTX-M-15, qnrS1, ompK35/36 by CLSI method; format: functional
Klebsiella pneumoniae [12] = assay: Antimicrobial activity against carbapenem-resistant Klebsiella pneumoniae ZJ70 deficient in KPC-2, SHV-11, CTX-M-14, ompK35/36 by CLSI method; format: functional
Klebsiella pneumoniae [13] = assay: Antimicrobial activity against Klebsiella pneumoniae ZJ71T expressing KPC-2 by CLSI method; format: functional
Enterobacter cloacae [14] = assay: Antimicrobial activity against carbapenem-resistant Enterobacter cloacae SZ92 deficient in IMP-4, TEM-1, CTX-M-14, DHA-1, qnrB10/B4-like, aac(6')-Ib, ompC by CLSI method; format: functional
Enterobacter cloacae [15] = assay: Antimicrobial activity against carbapenem-resistant Enterobacter cloacae GX24 deficient in TEM-1, DHA-1, aac(6')-Ib, ompC by CLSI method; format: functional
Klebsiella pneumoniae [16] = assay: Antimicrobial activity against carbapenem-resistant Klebsiella pneumoniae PU8 deficient in SHV-11, DHA-1, aac(6')-Ib-cr, ompK35/36 by CLSI method; format: functional
Klebsiella aerogenes [17] = assay: Antimicrobial activity against carbapenem-resistant Enterobacter aerogenes WH85 deficient in TEM-1, CTX-M-3, ompC/F by CLSI method; format: functional
Klebsiella pneumoniae [18] = assay: Antimicrobial activity against Klebsiella pneumoniae ZJ68T expressing CTX-M-15 by CLSI method; format: functional
Klebsiella pneumoniae [19] = assay: Antimicrobial activity against Klebsiella pneumoniae ZJ70T expressing KPC-2 by CLSI method; format: functional
Escherichia coli [20] = assay: Antimicrobial activity against Escherichia coli PU60T expressing CMY-2 by CLSI method; format: functional
Klebsiella pneumoniae [21] = assay: Antimicrobial activity against carbapenem-resistant Klebsiella pneumoniae FZ47 deficient in IMP-8, TEM-1, SHV-11, CTX-M-14, qnrB2, aac(6')-Ib, ompK35/36 by CLSI method; format: functional
Escherichia coli [22] = assay: Antimicrobial activity against Escherichia coli C600 transconjugant GZ66T expressing SHV-11, DHA-1 by CLSI method
Klebsiella pneumoniae [23] = assay: Antimicrobial activity against carbapenem-resistant Klebsiella pneumoniae PU4 deficient in SHV-1, DHA-1, ompK35/36 by CLSI method; format: functional
Klebsiella pneumoniae [24] = assay: Antimicrobial activity against carbapenem-resistant Klebsiella pneumoniae XJ81 deficient in TEM-1, SHV-12, DHA-1, aac(6')-Ib, ompK35/36 by CLSI method; format: functional
Klebsiella pneumoniae [25] = assay: Antimicrobial activity against carbapenem-resistant Klebsiella pneumoniae SX67 deficient in SHV-2, CTX-M-14, DHA-1, qnrB6/S1, aac(6')-Ib-cr, ompK35/36 by CLSI method; format: functional
Klebsiella pneumoniae [26] = assay: Antimicrobial activity against carbapenem-resistant Klebsiella pneumoniae FZ49 deficient in IMP-8, TEM-1, SHV-11, CTX-M-14, qnrB2, aac(6')-Ib, ompK35/36 by CLSI method; format: functional
Klebsiella pneumoniae [27] = assay: Antimicrobial activity against carbapenem-resistant Klebsiella pneumoniae SZ61 deficient in TEM-1, SHV-1a, CMY-2, ompK35/36 by CLSI method; format: functional
Klebsiella pneumoniae [28] = assay: Antimicrobial activity against carbapenem-resistant Klebsiella pneumoniae ZJ68 deficient in CTX-M-15, ompK35/36 by CLSI method
Klebsiella pneumoniae [29] = assay: Antimicrobial activity against carbapenem-resistant Klebsiella pneumoniae ZJ69 deficient in SHV-28, ompK35/36 by CLSI method; format: functional
Enterobacter cloacae [30] = assay: Antimicrobial activity against carbapenem-resistant Enterobacter cloacae WH103 deficient in IMP-4, TEM-1, CTX-M-3, qnrS1, ompC by CLSI method; format: functional
Klebsiella pneumoniae [31] = assay: Antimicrobial activity against Klebsiella pneumoniae GZ64 expressing IMP-4, ompK35/36 by CLSI method; format: functional

C[C@@H](O)[C@H]1C(=O)N2C(C(=O)O)=C(S[C@@H]3CN[C@H](C(=O)N(C)C)C3)[C@H](C)[C@H]12 [MEROPENEM]
MIC (Klebsiella pneumoniae [1]): 1 µg/mL (≈ 2.61 µM)
MIC (Citrobacter freundii [2]): 4 µg/mL (≈ 10.4 µM)
MIC (Klebsiella aerogenes [3]): 8 µg/mL (≈ 20.9 µM)
MIC (Klebsiella aerogenes [4]): 0.032 µg/mL (≈ 0.0834 µM)
MIC (Escherichia coli [5]): 8 µg/mL (≈ 20.9 µM)
MIC (Escherichia coli [6]): 0.03 µg/mL (≈ 0.0782 µM)
MIC (Escherichia coli [7]): 8 µg/mL (≈ 20.9 µM)
MIC (Citrobacter freundii [8]): 4 µg/mL (≈ 10.4 µM)
MIC (Citrobacter freundii [9]): 4 µg/mL (≈ 10.4 µM)
MIC (Klebsiella pneumoniae [10]): 4 µg/mL (≈ 10.4 µM)
MIC (Klebsiella pneumoniae [11]): 8 µg/mL (≈ 20.9 µM)
MIC (Klebsiella pneumoniae [12]): 256 µg/mL (≈ 668 µM)
MIC (Klebsiella pneumoniae [13]): 4 µg/mL (≈ 10.4 µM)
MIC (Enterobacter cloacae [14]): 8 µg/mL (≈ 20.9 µM)
MIC (Enterobacter cloacae [15]): 2 µg/mL (≈ 5.22 µM)
MIC (Klebsiella pneumoniae [16]): 8 µg/mL (≈ 20.9 µM)
MIC (Klebsiella aerogenes [17]): 8 µg/mL (≈ 20.9 µM)
MIC (Klebsiella pneumoniae [18]): 0.032 µg/mL (≈ 0.0834 µM)
MIC (Klebsiella pneumoniae [19]): 8 µg/mL (≈ 20.9 µM)
MIC (Escherichia coli [20]): 0.032 µg/mL (≈ 0.0834 µM)
MIC (Klebsiella pneumoniae [21]): 2 µg/mL (≈ 5.22 µM)
MIC (Escherichia coli [22]): 0.032 µg/mL (≈ 0.0834 µM)
MIC (Klebsiella pneumoniae [23]): 4 µg/mL (≈ 10.4 µM)
MIC (Klebsiella pneumoniae [24]): 2 µg/mL (≈ 5.22 µM)
MIC (Klebsiella pneumoniae [25]): 2 µg/mL (≈ 5.22 µM)
MIC (Klebsiella pneumoniae [26]): 2 µg/mL (≈ 5.22 µM)
MIC (Klebsiella pneumoniae [27]): 8 µg/mL (≈ 20.9 µM)
MIC (Klebsiella pneumoniae [28]): 8 µg/mL (≈ 20.9 µM)
MIC (Klebsiella pneumoniae [29]): 4 µg/mL (≈ 10.4 µM)
MIC (Enterobacter cloacae [30]): 8 µg/mL (≈ 20.9 µM)
MIC (Klebsiella pneumoniae [31]): 8 µg/mL (≈ 20.9 µM)

— ChEMBL document CHEMBL1212738, “Phenotypic and genotypic characterization of Enterobacteriaceae with decreased susceptibility to carbapenems: results from large hospital-based surveillance studies in China” (2010)
